Source: patent US4927919A, “Chartreusin derivatives and salts thereof” (Ishihara Sangyo Kaisha, Ltd., priority 1985, dated 1990)
Counter-ions that a name gives are not always drawn.

Tests used:
[1] = Acute toxicity (LD50, single intravenous administration); set-up: species or system day mice; settings: mouse, in vivo, mice, single i.v.
Text: In Table 15 are shown acute toxicity values (LD50, mg/kg) in day mice in the case of intravenously administering (once) each of the compounds of this invention in the form of preparations shown in the Preparation Examples shown in Table 16.

P-388 leukemia cells = test: Antitumor activity against P-388 leukemia cells (i.p. implanted, i.v. drug); assay type: in vivo, BDF1 mice; settings: Mus musculus, P388, iv, 720 h, i.v., 30-day observation, read-out: T/C of MST; for response vs control in vivo at 20 mg/kg: dose b: 20 mg/kg/d × 3 (days 1, 5, 9); for response vs control in vivo at 40 mg/kg: dose c: 40 mg/kg/d × 3 (days 1, 5, 9); for response vs control in vivo at 40 mg/kg/day: dose c': 40 mg/kg/d × 2 (days 1, 5)
Procedure: BDF1 mice were implanted intraperitoneally with P-388 leukemia cells at a rate of 1×10^6 cells/mouse, and each drug to be tested was administered intravenously on the first, fifth and ninth days, or on the first and fifth days after the implantation. […] The T/C (%) was calculated based on the following equation: [formula]
The drugs tested were as follows: solutions prepared by dissolving each of compound Nos. 34, 36 and 43 to 46 in physiological saline; suspension or solutions prepared by dissolving each of compound Nos. 35, 38 and 49 to 55 in dimethylacetamide, followed by adding thereto a small amount of a surface active agent (e.g., Tween-80) and then physiological saline; and suspension or solutions prepared by mixing each of the other compounds and a small amount of a surface active agent (e.g., Tween-80), followed by adding thereto physiological saline.

Row | Compound | LD50 ([1]; Preparation Example 1) | response vs control in vivo at 20 mg/kg (P-388 leukemia cells) | response vs control in vivo at 40 mg/kg (P-388 leukemia cells) | further results
1 | COC1C(N)C(C)OC(OC2C(Oc3cccc4c(OC(=O)CCCCCNC(=O)C(F)(F)F)c5c(=O)oc6ccc(C)c7c(=O)oc(c34)c5c67)OC(C)C3OC(c4ccccc4)OC32)C1O (stereo not shown) [Compound 37, 6-O-(n-trifluoroacetyl-6-amino-n-hexanoyl)-3',4'-O-benzylidene-4"-epiamino-4"-deoxy-chartreusin hydrochloride] | ≥ 40 mg/kg | 148% | 191% | 
2 | COC1C(N)C(C)OC(OC2C(Oc3cccc4c(OC(=O)CCNC=O)c5c(=O)oc6ccc(C)c7c(=O)oc(c34)c5c67)OC(C)C3OC(c4cccc(Br)c4)OC32)C1O (stereo not shown) [Compound 38] |  |  |  | LD50 ([1]; Preparation Example 6): ≥ 80 mg/kg; response vs control in vivo at 80 mg/kg (P-388 leukemia cells; dose f: 80 mg/kg/d × 3 (days 1, 5, 9)): 133%
3 | COC1C(N)C(C)OC(OC2C(Oc3cccc4c(OC(=O)CC(C)C)c5c(=O)oc6ccc(C)c7c(=O)oc(c34)c5c67)OC(C)C3OC(c4ccccc4)OC32)C1O (stereo not shown) [Compound 39, 6-O-(3-methyl-n-butyryl)-3',4',-O-benzylidene-4"-epiamino-4"-deoxy-chartreusin hydrochloride] |  |  | 207% | LD50 ([1]; Preparation Example 9): ≥ 60 mg/kg; response vs control in vivo at 60 mg/kg (P-388 leukemia cells; dose e: 60 mg/kg/d × 3 (days 1, 5, 9)): 240%
4 | COC1C(N)C(C)OC(OC2C(Oc3cccc4c(OC(=O)C(C)CNC(=O)C(F)(F)F)c5c(=O)oc6ccc(C)c7c(=O)oc(c34)c5c67)OC(C)C3OC(c4ccccc4)OC32)C1O (stereo not shown) [Compound 40] | ≥ 40 mg/kg | 142% | 219% | 
5 | COC1C(N)C(C)OC(OC2C(Oc3cccc4c(OC(=O)CC(C)NC(=O)C(F)(F)F)c5c(=O)oc6ccc(C)c7c(=O)oc(c34)c5c67)OC(C)C3OC(c4ccccc4)OC32)C1O (stereo not shown) [Compound 41] | ≥ 40 mg/kg |  | 187% | 
6 | COC1C(N)C(C)OC(OC2C(Oc3cccc4c(OC(=O)CCNC=O)c5c(=O)oc6ccc(C)c7c(=O)oc(c34)c5c67)OC(C)C3OC(c4ccccc4)OC32)C1O (stereo not shown) [Compound 42] | ≥ 40 mg/kg | 130% | 199% | 
7 | CNCCC(=O)Oc1c2cccc(OC3OC(C)C4OC(c5ccccc5)OC4C3OC3OC(C)C(N)C(OC)C3O)c2c2oc(=O)c3c(C)ccc4oc(=O)c1c2c43 (stereo not shown) [Compound 43] |  | 150% | 230% | LD50 ([1]; Preparation Example 8): ≥ 40 mg/kg
8 | CNCC(C)C(=O)Oc1c2cccc(OC3OC(C)C4OC(c5ccccc5)OC4C3OC3OC(C)C(N)C(OC)C3O)c2c2oc(=O)c3c(C)ccc4oc(=O)c1c2c43 (stereo not shown) [Compound 44] |  | 138% | 148% | LD50 ([1]; Preparation Example 8): ≥ 40 mg/kg
9 | COC1C(N)C(C)OC(OC2C(Oc3cccc4c(OC(=O)C(CN)C(C)C)c5c(=O)oc6ccc(C)c7c(=O)oc(c34)c5c67)OC(C)C3OC(c4ccccc4)OC32)C1O (stereo not shown) [Compound 45] |  |  |  | LD50 ([1]; Preparation Example 8): ≥ 30 mg/kg; response vs control in vivo at 30 mg/kg (P-388 leukemia cells; dose j: 30 mg/kg/d × 3 (days 1, 5, 9)): 131%
10 | COC1C(N)C(C)OC(OC2C(Oc3cccc4c(OC(=O)CCNC(=O)CN)c5c(=O)oc6ccc(C)c7c(=O)oc(c34)c5c67)OC(C)C3OC(c4ccccc4)OC32)C1O (stereo not shown) [Compound 46] |  |  | 148% | LD50 ([1]; Preparation Example 8): ≥ 40 mg/kg
11 | COC1C(N)C(C)OC(OC2C(Oc3cccc4c(OC(=O)CCC(C)=O)c5c(=O)oc6ccc(C)c7c(=O)oc(c34)c5c67)OC(C)C3OC(c4ccccc4)OC32)C1O (stereo not shown) [Compound 48] | ≥ 40 mg/kg | 166% | 219% | 
12 | COC1C(N)C(C)OC(OC2C(Oc3cccc4c(OC(=O)C5CC5C)c5c(=O)oc6ccc(C)c7c(=O)oc(c34)c5c67)OC(C)C3OC(c4ccccc4)OC32)C1O (stereo not shown) [Compound 49] |  |  |  | LD50 ([1]; Preparation Example 6): ≥ 40 mg/kg; response vs control in vivo at 40 mg/kg/day (P-388 leukemia cells): 153%
13 | COC1C(N)C(C)OC(OC2C(Oc3cccc4c(OC(=O)Cc5ccccc5)c5c(=O)oc6ccc(C)c7c(=O)oc(c34)c5c67)OC(C)C3OC(c4ccccc4)OC32)C1O (stereo not shown) [Compound 50] |  |  |  | LD50 ([1]; Preparation Example 7): ≥ 40 mg/kg; response vs control in vivo at 20 mg/kg/day (P-388 leukemia cells; dose b': 20 mg/kg/d × 2 (days 1, 5)): 165%; response vs control in vivo at 40 mg/kg/day (P-388 leukemia cells): 208%
14 | COc1cccc(C(=O)Oc2c3cccc(OC4OC(C)C5OC(c6ccccc6)OC5C4OC4OC(C)C(N)C(OC)C4O)c3c3oc(=O)c4c(C)ccc5oc(=O)c2c3c54)c1 (stereo not shown) [Compound 51, 6-O-(m-methoxybenzoyl)-3',4'-O-benzylidene-4"-epiamino-4"-deoxy-chartreusin] |  | 185% | 244% | LD50 ([1]; Preparation Example 6): ≥ 40 mg/kg
